One data set concerns the target T1, AMPK 111 (Homo sapiens, UniProt Q13131+Q9Y478).
T1 construct: open reading frames encoding the full-length α1, β1 and δ1 subunits of human AMPK; made in house; host or cells: E. coli BL21-CodonPlus (DE3)-RIPL, pET-14b
As to the kind of experiment: Biochemical profiling of AMPK activators by AMPK111 (HTRF/TR-FRET assay, SAMS peptide, PP2A dephosphorylation protection). The note with it: for EC50: phosphorylated AMPK 111 (α1β1δ1 as printed), 11 point dilution, duplicate, 4-parameter fit; for Emax: phosphorylated AMPK 111, maximal activation. (In general: In TR-FRET formats the signal depends on donor and acceptor labels being close together.)

Another data set deals with T2, AMPK 221 (Homo sapiens, UniProt O43741+P54646).
T2 construct: open reading frames encoding the full-length α2, β2 and δ1 subunits of human AMPK; made in house; host or cells: E. coli BL21-CodonPlus (DE3)-RIPL, pET-14b
T2 sequence (P54646 whole entry): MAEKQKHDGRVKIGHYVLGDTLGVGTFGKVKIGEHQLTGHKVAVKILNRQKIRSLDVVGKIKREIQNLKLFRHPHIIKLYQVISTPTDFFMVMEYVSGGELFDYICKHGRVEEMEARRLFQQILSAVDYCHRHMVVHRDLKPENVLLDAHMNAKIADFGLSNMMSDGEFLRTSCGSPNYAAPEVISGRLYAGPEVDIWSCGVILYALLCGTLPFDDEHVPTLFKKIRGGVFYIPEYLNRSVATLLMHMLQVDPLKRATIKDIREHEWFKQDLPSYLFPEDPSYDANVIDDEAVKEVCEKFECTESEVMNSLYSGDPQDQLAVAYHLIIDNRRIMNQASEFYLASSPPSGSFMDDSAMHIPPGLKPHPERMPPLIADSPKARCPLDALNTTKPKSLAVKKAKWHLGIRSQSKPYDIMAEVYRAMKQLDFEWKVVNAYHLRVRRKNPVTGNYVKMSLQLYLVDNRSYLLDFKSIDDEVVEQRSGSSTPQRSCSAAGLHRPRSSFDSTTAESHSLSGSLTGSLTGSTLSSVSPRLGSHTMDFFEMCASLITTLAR
T2 sequence (O43741 whole entry): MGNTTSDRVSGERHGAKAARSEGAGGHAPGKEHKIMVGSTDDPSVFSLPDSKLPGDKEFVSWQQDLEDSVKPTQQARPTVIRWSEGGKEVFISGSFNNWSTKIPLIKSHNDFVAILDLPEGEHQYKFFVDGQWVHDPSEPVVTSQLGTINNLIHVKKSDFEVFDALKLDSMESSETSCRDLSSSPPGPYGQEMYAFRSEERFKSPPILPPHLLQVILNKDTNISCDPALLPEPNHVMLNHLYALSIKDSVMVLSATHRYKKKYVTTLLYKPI
T2 sequence (P54619 whole entry partner): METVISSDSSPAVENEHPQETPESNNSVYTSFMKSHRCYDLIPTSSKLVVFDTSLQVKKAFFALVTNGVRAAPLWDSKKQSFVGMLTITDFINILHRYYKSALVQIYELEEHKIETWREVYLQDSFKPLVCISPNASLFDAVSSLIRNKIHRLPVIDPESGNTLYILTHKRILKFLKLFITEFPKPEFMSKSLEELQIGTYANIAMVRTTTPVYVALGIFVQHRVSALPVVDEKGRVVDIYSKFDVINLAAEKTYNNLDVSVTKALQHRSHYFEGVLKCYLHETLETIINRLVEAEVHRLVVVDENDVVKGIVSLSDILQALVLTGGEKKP
As to the kind of experiment: Biochemical profiling of AMPK activators by AMPK221 (HTRF/TR-FRET assay, SAMS peptide, PP2A dephosphorylation protection). The note with it: for EC50: phosphorylated AMPK 221 (α2β2δ1), 11 point dilution, duplicate, 4-parameter fit; for Emax: phosphorylated AMPK 221, maximal activation.

The nature of data set [1]: Metabolite profile in liver microsomes, hepatocytes, recombinant human P450 and UGT enzymes, and animal plasma. The note with it: liver microsomes and hepatocytes (mouse, rat, rabbit, dog, monkey, human). The format is in vitro ADME. The method, then:
The metabolite profile of Example 1 is evaluated in liver microsomes and hepatocytes (mouse, rat, rabbit, dog, monkey, and human), recombinant human cytochrome P450 enzymes, recombinant human UGT enzymes, and plasma from animals (mouse, rat, and dog).
(Liver microsomes are a subcellular fraction often used to study metabolism.)

T1 sequence (Q13131 whole entry): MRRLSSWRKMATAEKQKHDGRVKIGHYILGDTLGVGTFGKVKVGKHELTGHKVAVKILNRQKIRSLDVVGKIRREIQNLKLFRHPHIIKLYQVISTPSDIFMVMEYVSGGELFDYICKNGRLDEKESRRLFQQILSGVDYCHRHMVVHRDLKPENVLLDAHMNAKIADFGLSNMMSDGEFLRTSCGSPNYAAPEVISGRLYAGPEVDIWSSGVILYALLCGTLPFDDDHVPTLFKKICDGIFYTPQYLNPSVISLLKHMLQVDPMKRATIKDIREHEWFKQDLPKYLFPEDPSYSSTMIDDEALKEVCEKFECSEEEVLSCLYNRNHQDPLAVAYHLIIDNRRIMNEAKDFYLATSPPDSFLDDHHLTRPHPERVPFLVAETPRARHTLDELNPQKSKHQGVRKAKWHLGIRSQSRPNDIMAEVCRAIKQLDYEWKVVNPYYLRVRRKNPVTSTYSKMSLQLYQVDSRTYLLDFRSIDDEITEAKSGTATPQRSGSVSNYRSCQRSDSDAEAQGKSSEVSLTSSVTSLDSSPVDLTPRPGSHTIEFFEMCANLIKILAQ
T1 sequence (Q9Y478 whole entry): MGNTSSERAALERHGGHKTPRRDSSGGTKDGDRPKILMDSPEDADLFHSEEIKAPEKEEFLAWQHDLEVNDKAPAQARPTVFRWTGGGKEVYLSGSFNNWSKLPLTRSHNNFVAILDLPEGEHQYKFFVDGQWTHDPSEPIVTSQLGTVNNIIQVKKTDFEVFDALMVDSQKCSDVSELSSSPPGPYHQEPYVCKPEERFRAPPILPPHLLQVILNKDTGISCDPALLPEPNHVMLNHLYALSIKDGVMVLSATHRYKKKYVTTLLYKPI
T1 sequence (P54619 whole entry partner): as the sequence (P54619 whole entry partner) above

Regarding `O=C(O)CCc1n[nH]c2cc(Cl)c(-c3ccc(-c4ccccc4O)cc3)cc12` [Example 1, 3-(6-Chloro-5-(2′-hydroxy-[1,1′-biphenyl]-4-yl)-1H-indazol-3-yl)propanoic acid], on AMPK 111, the EC50 (usually the midpoint of the concentration-response curve) amounted to 47 nM and the Emax (in general, the greatest response seen or fitted, relative to the assay's reference) was 75%. At AMPK 221, this compound yielded an EC50 of 88 nM and a maximum response (Emax) of 57%. In addition, in data set [1], the metabolite profile result is “oxidation and glucuronidation”.

For the compound `O=C(O)CCc1n[nH]c2cc(Cl)c(-c3ccc(-c4ccc(C(=O)NCCCO)cc4)cc3)cc12` [Example 77, 3-(6-chloro-5-(4′-((3-hydroxypropyl)carbamoyl)-[1,1′-biphenyl]-4-yl)-1H-indazol-3-yl)propanoic acid], on AMPK 111, the EC50 was found to be 70 nM and the Emax was 66%. At AMPK 221, the EC50 is 82 nM and the Emax turned out to be 58%.

`O=C(O)CCc1n[nH]c2cc(Cl)c(-c3ccc(-c4csc(CO)n4)cc3)cc12` [Example 66, 3-(6-chloro-5-(4-(2-(hydroxymethyl)thiazol-4-yl)phenyl)-1H-indazol-3-yl)propanoic acid]: on AMPK 111, the EC50 worked out at 365 nM and the Emax came to 74%. On AMPK 221, the midpoint of the response, the EC50, lay at 1090 nM and the Emax turned out to be 63%.

`O=C(O)CCc1n[nH]c2cc(Cl)c(-c3ccc(-c4cc(F)ccc4O)cc3)cc12` [Example 70, 3-(6-chloro-5-(5′-fluoro-2′-hydroxy-[1,1′-biphenyl]-4-yl)-1H-indazol-3-yl)propanoic acid]: at AMPK 111, the response was half-maximal at 285 nM (EC50) and the maximal response (Emax) turned out to be 74%. In addition, on AMPK 221, the EC50 was 1090 nM and the Emax amounted to 49%.

At AMPK 111, `NCc1ccc(-c2ccc(-c3cc4c(CCC(=O)O)n[nH]c4cc3Cl)cc2)c(O)c1` [Example 8, 3-(5-(4′-(Aminomethyl)-2′-hydroxy-[1,1′-biphenyl]-4-yl)-6-chloro-1H-indazol-3-yl)propanoic acid] showed an EC50 of 26 nM and an Emax of 75%. Also, on AMPK 221, it took 38 nM to reach a half-maximal effect (EC50) and the Emax worked out at 56%.

As for `CC(=O)NCc1ccc(-c2ccc(-c3cc4c(CCC(=O)O)n[nH]c4cc3Cl)cc2)cc1` [Example 41, 3-(5-(4′-(acetamidomethyl)-[1,1′-biphenyl]-4-yl)-6-chloro-1H-indazol-3-yl)propanoic acid], at AMPK 111, the EC50 is 70 nM and the Emax was 66%. At AMPK 221, this compound registered an EC50 of 235 nM and an Emax of 65%.

`O=C(O)CCc1n[nH]c2cc(Cl)c(-c3ccc(-c4ccccc4OC4OC(C(=O)O)C(O)C(O)C4O)cc3)cc12` (stereo not drawn) [Example 80, 6-((4′-(3-(2-carboxyethyl)-6-chloro-1H-indazol-5-yl)-[1,1′-biphenyl]-2-yl)oxy)-3,4,5-trihydroxytetrahydro-2H-pyran-2-carboxylic acid]: the concentration for a half-maximal effect (EC50) on AMPK 111 and at AMPK 221 was greater than 21100 nM each time.

On AMPK 111, `COc1nc(-c2ccc(-c3cc4c(CCC(=O)O)n[nH]c4cc3Cl)cc2)cs1` [Example 59, 3-(6-chloro-5-(4-(2-methoxythiazol-4-yl)phenyl)-1H-indazol-3-yl)propanoic acid] came in with an EC50 of 609 nM and an Emax of 30%. At AMPK 221, this compound had an EC50 of 546 nM and an Emax of 13%.

Consider `COc1ccc(F)c(-c2ccc(-c3cc4c(CCC(=O)O)n[nH]c4cc3Cl)cc2)c1O` [Example 26, 3-(6-chloro-5-(6′-fluoro-2′-hydroxy-3′-methoxy-[1,1′-biphenyl]-4-yl)-1H-indazol-3-yl)propanoic acid], for which the EC50 at AMPK 111 is 107 nM; on AMPK 221 it was 114 nM. In addition, the Emax on AMPK 111 amounted to 77%; at AMPK 221, 66%.

On AMPK 111, `NC(=O)c1ccc(-c2ccc(-c3cc4c(CCC(=O)O)n[nH]c4cc3Cl)cc2)cc1` [Example 5, 3-(5-(4′-Carbamoyl-[1,1′-biphenyl]-4-yl)-6-chloro-1H-indazol-3-yl)propanoic acid] showed an EC50 of 89 nM and an Emax of 59%. At AMPK 221, this compound came in with an EC50 of 37 nM and an Emax of 62%.

Turning to `O=C(O)CCc1n[nH]c2cc(Cl)c(-c3ccc(-c4csc(CO)c4)cc3)cc12` [Example 58, 3-(6-chloro-5-(4-(5-(hydroxymethyl)thiophen-3-yl)phenyl)-1H-indazol-3-yl)propanoic acid], the EC50 on AMPK 111 came out at 215 nM; at AMPK 221, 573 nM. Besides, the maximal effect (Emax) at AMPK 111 is 76%; at AMPK 221 it was 57%.

On AMPK 111, `CNC(=O)c1ccc(-c2ccc(-c3cc4c(CCC(=O)O)n[nH]c4cc3Cl)cc2)c(O)c1` [Example 23, 3-(6-chloro-5-(2′-hydroxy-4′-(methylcarbamoyl)-[1,1′-biphenyl]-4-yl)-1H-indazol-3-yl)propanoic acid] displayed an EC50 of 2 nM and an Emax of 71%. In addition, on AMPK 221, the EC50 worked out at 5 nM and the Emax is 56%.

On to `O=C(O)CCc1n[nH]c2cc(Cl)c(-c3ccc(-c4cccc(OC(F)F)c4O)cc3)cc12` [Example 57, 3-(6-chloro-5-(3′-(difluoromethoxy)-2′-hydroxy-[1,1′-biphenyl]-4-yl)-1H-indazol-3-yl)propanoic acid], for which, on AMPK 111, a half-maximal response (EC50) required 103 nM and the Emax is 75%. Further, at AMPK 221, the midpoint of the response, the EC50, lay at 426 nM and the Emax stood at 63%.

These data come from patent publication US20240336572A1, “SUBSTITUTED INDAZOLE PROPIONIC ACID DERIVATIVE COMPOUNDS AND USES THEREOF” (Pfizer Inc., priority 2023, published 2024).
